Measured values: article PMC5770598, “Small molecules targeted to the microtubule–Hec1 interaction inhibit cancer cell growth through microtubule stabilization” (Oncogene, 2017)

Legend:
[1] = biological target: T1, MTs (assembled microtubules); test: SPR, steady-state Scatchard plot; format: binding; conditions: microtubules immobilised on COOH5 chip; pH 7.4, 10 mM Hepes, 150 mM NaCl, 2 mM MgCl2, 0.05% P20, 2% DMSO; error printed as ±0.1
T1 construct: gene alpha-tubulin; assembled microtubules (polymer of alpha/beta-tubulin dimers), 6050 RU amine-coupled to COOH5 chip

[2] = biological target: T2, tubulin (dimeric); test: SPR, steady-state Scatchard plot; format: binding; conditions: tubulin dimers immobilised on COOH5 chip; pH 7.4, 10 mM Hepes, 150 mM NaCl, 2 mM MgCl2, 0.05% P20, 2% DMSO
T2 construct: gene alpha-tubulin; unassembled alpha/beta-tubulin dimer, 3900 RU amine-coupled to COOH5 chip

Kd [1]: 940 ± 130 nM | Kd [2]: 1800 ± 400 nM
Structure (SMILES): O=C(/C=C/c1cn(CC(O)CN2CCCCC2)c2ccccc12)c1ccc(Br)cc1 (centres unmarked) [SM15]
